Entries after “also recorded” stand apart in the source; their conditions may differ.
How the values were obtained:
[1] = biological target: T1, calf intestinal alkaline phosphatase (Bos taurus, UniProt P19111); assay: Alkaline phosphatase inhibition assay (spectrophotometric, p-NPP substrate); type: biochemical; conditions: Mean ± SEM, pH 9.5, 37 °C
Experimental: The inhibitory activity of calf intestinal alkaline phosphatase was evaluated using spectrophotometric assay as previously reported in our studies[55]^,[56]. In addition, Kinetic mechanism analysis was conducted to determine the mechanism of inhibition. […] The detailed procedure for alkaline phosphate inhibition assay and kinetic mechanism analysis is given in supplementary file. […]
Alkaline phosphatase inhibition assay and kinetic mechanism analysis
The reaction mixture comprised of 50 mM Tris -HCl buffer (5 mM MgCl2, 0.1 mM ZnCl2 pH 9.5), the compound (0.1 mM with final DMSO 1% (v/v) and mixture was pre -incubated for 10 min by adding 5 µL of CIALP (0.025 U/mL). Then, 10 µL of substrate (0.5 mM p-NPP (para nitrophenyl phosphate disodium salt) was added to initiate the reaction and the assay mixture was incubated again for 30 min at 37 °C. The change in absorbance of released p-nitrophenolate was monitored at 405 nm, using a 96-well microplate reader (SpectraMax ABS, USA). All the experiments were repeated three times in a triplicate manner.
The Alkaline Phosphatase activities were calculated according to the following formula: […]

[2] = biological target: T1, calf intestinal alkaline phosphatase; assay: Kinetic mechanism analysis (Lineweaver-Burk plot); type: biochemical; conditions: for Km / Vmax: substrate para nitrophenyl phosphate disodium salt
Experimental: The inhibitory activity of calf intestinal alkaline phosphatase was evaluated using spectrophotometric assay as previously reported in our studies[55]^,[56]. In addition, Kinetic mechanism analysis was conducted to determine the mechanism of inhibition. […] The detailed procedure for alkaline phosphate inhibition assay and kinetic mechanism analysis is given in supplementary file.
According to the EI and ESI constants, respectively, it was determined if the compounds had the ability to inhibit the free enzyme and the enzyme-substrate complex. Figure 4 illustrates a succession of straight lines obtained from the Lineweaver–Burk plot of the enzyme’s kinetic studies against the substrate para nitrophenyl phosphate disodium salt at various inhibitor doses (A).
Where ODcontrol and ODsample represents the optical v densities in the absence and presence of […]
The inhibitor 6g concentrations were used 0.00, 0.169, 0.337 and 0.674 µM, Substrate p-NPP concentrations were 10, 5, 2.5, 1.25, 0.625 and 0.3125 mM. Pre-incubation time and other conditions were same as described in alkaline phosphatase inhibition assay section. Maximal initial velocities were determined from initial linear portion of absorbances up to 10 minutes after addition of enzyme at per minute’s interval. The inhibition type on the enzyme was assayed by Lineweaver-Burk plot of inverse of velocities (1/V) versus inverse of substrate concentration 1/[S] mM-1. The EI dissociation constant Ki was determined by secondary plot of 1/V versus inhibitor […]
Information Classification: General

T1 sequence (P19111 20-533): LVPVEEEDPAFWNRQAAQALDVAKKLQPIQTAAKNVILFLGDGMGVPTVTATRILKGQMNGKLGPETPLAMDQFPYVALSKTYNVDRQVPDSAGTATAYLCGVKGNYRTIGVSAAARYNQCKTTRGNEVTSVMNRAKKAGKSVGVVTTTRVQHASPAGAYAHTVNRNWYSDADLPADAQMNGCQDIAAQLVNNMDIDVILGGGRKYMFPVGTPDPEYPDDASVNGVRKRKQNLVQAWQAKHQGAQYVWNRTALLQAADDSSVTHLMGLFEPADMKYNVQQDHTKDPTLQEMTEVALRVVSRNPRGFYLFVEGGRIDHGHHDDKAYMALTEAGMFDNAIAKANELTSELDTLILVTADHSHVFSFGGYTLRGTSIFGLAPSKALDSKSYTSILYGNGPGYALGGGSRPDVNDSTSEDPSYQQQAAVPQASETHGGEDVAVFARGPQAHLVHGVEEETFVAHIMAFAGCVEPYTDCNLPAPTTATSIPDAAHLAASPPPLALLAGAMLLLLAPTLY

SMILES	IC50 [1] [nM]	melting point [°C]	other results
CCCCC(=O)/N=c1/scc(-c2ccc(Br)cc2)n1-c1cnc2ccccc2c1 [Compound 6b]	3150 ± 251		
CCCCCC(=O)/N=c1/scc(-c2ccc(Br)cc2)n1-c1cnc2ccccc2c1 [Compound 6c, (E)-N-(4-(4-Bromophenyl)-3-(quinolin-3-yl)thiazol-2(3H)-ylidene)hexanamide]	4240 ± 241	181 to 182	
Cc1ccc(C(=O)/N=c2/scc(-c3ccc(Br)cc3)n2-c2cnc3ccccc3c2)cc1 [Compound 6h]	6300 ± 634	103 to 105	
CCCCCCCC(=O)N=c1scc(-c2ccc(Br)cc2)n1-c1cnc2ccccc2c1 [Compound 6e]	754 ± 55		
CCCCCCC(=O)N=c1scc(-c2ccc(Br)cc2)n1-c1cnc2ccccc2c1 [Compound 6d]	886 ± 74	188 to 190	
O=C(/N=c1/scc(-c2ccc(Br)cc2)n1-c1cnc2ccccc2c1)c1cc([N+](=O)[O-])cc([N+](=O)[O-])c1 [Compound 6j, N-nitrobenzamide quinolinyl iminothiazoline]	509 ± 36		
CCCC(=O)/N=c1/scc(-c2ccc(Br)cc2)n1-c1cnc2ccccc2c1 [Compound 6a]	7250 ± 435		
O=C(/N=c1/scc(-c2ccc(Br)cc2)n1-c1cnc2ccccc2c1)c1ccc(Cl)cc1Cl [Compound 6i, N-dichlorobenzamide quinolinyl iminothiazoline]	957 ± 71		
O=C(/N=c1/scc(-c2ccc(Br)cc2)n1-c1cnc2ccccc2c1)c1ccccc1 [Compound 6g, (E)-N-(4-(4-bromophenyl)-3-(quinolin-3-yl)thiazol-2(3H)-ylidene)benzamide]	337 ± 15	217 to 220	Km ([2]; 6g concentration 0.169 µM): 310 µM; Vmax ([2]; 6g concentration 0.169 µM): 0.00204 ΔA /Min; Km ([2]; 6g concentration 0.337 µM): 310 µM; Vmax ([2]; 6g concentration 0.337 µM): 0.00175 ΔA /Min; Km ([2]; 6g concentration 0.674 µM): 310 µM; Vmax ([2]; 6g concentration 0.674 µM): 0.00133 ΔA /Min; Inhibition type ([2]; Lineweaver-Burk plot): non-competitively; also recorded: Non-Competitive; Ki ([2]; secondary plot of slope vs inhibitor concentration, read-out: Ki (EI dissociation constant)): 470 nM
CCCCCCCCCC(=O)/N=c1/scc(-c2ccc(Br)cc2)n1-c1cnc2ccccc2c1 [Compound 6f]	8680 ± 908		

Source: paper PMC9848371, “Synthesis, kinetic studies and in-silico investigations of novel quinolinyl-iminothiazolines as alkaline phosphatase inhibitors” (Journal of Enzyme Inhibition and Medicinal Chemistry, 2023)
